Test results reported in the OligoGym collection.
Values joined by “and” are separate entries in the source; they are usually repeats but may differ in a detail not shown here. Equal entries are not always repeated. After the bases stand the sugars from the 5' end (letter, count) and the backbone: PS all phosphorothioate, else s phosphorothioate and o phosphodiester by linkage. Methylation of C is not given here. e = 2'-O-(2-methoxyethyl) (MOE); l = locked nucleic acid (LNA); k = constrained ethyl (cEt); d = 2'-deoxy (DNA)

Assays:
[1] = molecular target: ANGPTL2; details: ASO
[2] = molecular target: KRAS; details: ASO

Sequence	target mRNA inhibition ([1]; 5 µM)	target mRNA inhibition ([1]; 25 µM)	target mRNA inhibition ([2]; A431, 2 µM)	other results
GATGATGCGGTTGTAGGT (sugars l1 d15 l2, PS)	62.4%	73%	–	–
GCTTGCGGATGATCTC (sugars l2 d12 l2, PS)	38%	70.9%	–	–
GTGCTCTGTGAAGATTA (sugars l2 d11 l4, PS)	66.6%	81.3%	–	–
ACTTCTATTCTTGGACC (sugars l2 d13 l2, PS)	47.8%	55.7%	–	–
GAACTCAGCCCAGTAGAC (sugars l1 d15 l2, PS)	-4.7%	17.5%	–	–
GAATTTTCTTTACCTTAG (sugars l4 d11 l3, PS)	41.4%	56%	–	–
TGATGATGCGGTTGTAGGT (sugars l1 d16 l2, PS)	45.5%	63.9%	–	–
CTAGGCACTCAATCCCA (sugars l1 d14 l2, PS)	21.9%	31.5%	–	–
CCACACCCAACATTTTA (sugars l2 d13 l2, PS)	56.8%	63%	–	–
GATGATGCGGTTGTAGG (sugars l2 d13 l2, PS)	67%	78%	–	–
TAGCAGATGGGGCACAA (sugars l1 d12 l4, PS)	22.9%	12.4%	–	–
CTAGATTTCTTTCAGTTTG (sugars l2 d14 l3, PS)	62.7% and 67.4%	67.5% and 77.3%	–	–
AATTTACAGTTCTTTGTC (sugars l4 d10 l4, PS)	78.2%	83.3%	–	–
TTATAGGGTGGAATAAA (sugars l4 d9 l4, PS)	18.2%	26.9%	–	–
AAGCTGTTGAAATGTATG (sugars l3 d11 l4, PS)	41.3%	30.4%	–	–
GAGTTTGGATCATAGAA (sugars l4 d10 l3, PS)	41.2%	65.8%	–	–
GTTTCTGACAAAGCCCG (sugars l1 d13 l3, PS)	79.6%	84.3%	–	–
GTTCTCCAGGGAAGTGTA (sugars l1 d15 l2, PS)	47.4%	57.7%	–	–
TTCTCCTAGAAAGCAGT (sugars l1 d12 l4, PS)	43%	61.9%	–	–
GCAGCTCATTGTTGAGCA (sugars l1 d15 l2, PS)	-2.7%	-0.5%	–	–
ATTTTGAGATTCCCCCAAAG (sugars l1 d17 l2, PS)	10.8%	2.99%	–	–
CCATTTTGAGATTCCCC (sugars l1 d14 l2, PS)	26.4%	11.8%	–	–

Sequence	target mRNA inhibition ([1]; 5 µM)	target mRNA inhibition ([1]; 25 µM)	target mRNA inhibition ([2]; A431, 2 µM)	other results
TTCTGGTAGTGGGCACAG (sugars l1 d15 l2, PS)	36.8%	37.1%	–	–
GCATTCCTCAGACAAATC (sugars l2 d14 l2, PS)	43.6%	56.9%	–	–
TGAATGGAAGATACAAAACT (sugars l4 d12 l4, PS)	11.6%	44.7%	–	–
TGATGATGCGGTTGTA (sugars l3 d11 l2, PS)	73.8%	85.9%	–	–
ACTAAATGAACTTCCACA (sugars l4 d11 l3, PS)	44.6%	64.9%	–	–
CTGGTTGATGATGCGGTTG (sugars l1 d16 l2, PS)	52.7%	60.5%	–	–
TTATAAAGACAAGAGCCT (sugars l3 d12 l3, PS)	34.5%	47.3%	–	–
TTGATGATGCGGTTGTAGG (sugars l1 d16 l2, PS)	44.8%	55.9%	–	–
AATTAGTGATTAGGTC (sugars k3 d10 k3, PS)	–	–	32%	–
CCAACCATAAATTAATTG (sugars l4 d10 l4, PS)	61.8%	74.5%	–	–
TTAGTGATTAGGTCAA (sugars kddddddddddkekek, PS)	–	–	12%	–
CATTTATGTGACTAGA (sugars kkddddddddkekekk, PS)	–	–	20%	–
GATTTGTCAGCAGGAC (sugars k3 d10 k3, PS)	–	–	47%	target mRNA inhibition ([2]; A431, 0.037 µM): 68%; target mRNA inhibition ([2]; A431, 5 µM): 96% and 93%; target mRNA inhibition ([2]; NCI-H460, 0.037 µM): 60.1%
CTTATGCAGAGAAAAC (sugars k3 d10 k3, PS)	–	–	8%	–
TAGTTTCACATAGCAA (sugars k3 d10 k3, PS)	–	–	51%	–
GATTGTGCTGAGCTTG (sugars kkkddddddddkekek, PS)	–	–	37%	–
AGGAGTCTTTATAGTA (sugars kkkddddddddkekek, PS)	–	–	22%	–
TGATGTGGTGAGACAGTA (sugars l2 d14 l2, PS)	53.6%	70.5%	–	–
CCTGGTAAAATCTTACA (sugars l3 d11 l3, PS)	37.4%	48.2%	–	–
ATTAATCCATTTATGT (sugars k3 d10 k3, PS)	–	–	3%	–
CAGGCCAACACTAACTCGG (sugars l1 d16 l2, PS)	49%	57%	–	–
AGGAGTCTTTATAGTA (sugars kddddddddddkekek, PS)	–	–	31%	–

Sequence	target mRNA inhibition ([1]; 5 µM)	target mRNA inhibition ([1]; 25 µM)	target mRNA inhibition ([2]; A431, 2 µM)	other results
ATTACTTATGCAGAGA (sugars k3 d10 k3, PS)	–	–	60%	–
ACATGTATATTATGAAGGTA (sugars l4 d14 l2, PS)	18.1%	8.64%	–	–
ATAGTTTCCATTGCCT (sugars k3 d10 k3, PS)	–	–	50% and 65%	target mRNA inhibition ([2]; A431, 1.667 µM): 64% and 45%; target mRNA inhibition ([2]; A431, 5 µM): 75% and 70%
ACCATTCAAAGTTCAC (sugars kkkdddddddddkeke, PS)	–	–	30%	–
CATTGCTAGTTCAAAA (sugars k3 d10 k3, PS)	–	–	9%	–
CATTTATGTGACTAGA (sugars k3 d10 k3, PS)	–	–	56%	–
ATTGTTTAAAAAAAAA (sugars k3 d10 k3, PS)	–	–	0%	–
TGATTTGTCAGCAGGA (sugars kkdddddddddkdkdk, PS)	–	–	15%	–
CTATAATAATCCCCAT (sugars k3 d10 k3, PS)	–	–	6%	–
GAAATGTTATCTAATACT (sugars l4 d10 l4, PS)	34.5%	49%	–	–
GCAGTGTGACTCAGTT (sugars k3 d10 k3, PS)	–	–	48%	–
ACCATTTTGAGATTCCCC (sugars l1 d15 l2, PS)	-8.3%	18.9%	–	–
GTGTTTATGCAATGTT (sugars kkdddddddddkekek, PS)	–	–	65%	target mRNA inhibition ([2]; A431, 0.185 µM): 22%; target mRNA inhibition ([2]; A431, 0.556 µM): 54%; target mRNA inhibition ([2]; A431, 1.667 µM): 77%; target mRNA inhibition ([2]; A431, 5 µM): 83%
TCTATTCATACCAGGT (sugars k3 d10 k3, PS)	–	–	26%	–
TGGTTGATGATGCGGTT (sugars l2 d13 l2, PS)	81.7%	87.5%	–	–
CAAGAGGGAGGGGAGGACA (sugars l1 d16 l2, PS)	36.8%	42.9%	–	–
TGAATTAGTCTCCATT (sugars k3 d10 k3, PS)	–	–	17%	–
GATTTGTCAGCAGGAC (sugars kddddddddddkekek, PS)	–	–	57%	target mRNA inhibition ([2]; A431, 0.185 µM): 16%; target mRNA inhibition ([2]; A431, 0.556 µM): 46%; target mRNA inhibition ([2]; A431, 1.667 µM): 62%; target mRNA inhibition ([2]; A431, 5 µM): 78%
ACCATTTTGAGATTCCC (sugars l2 d13 l2, PS)	30%	24.7%	–	–
ACCAGTGTTAAGAGAA (sugars kkdddddddddkekek, PS)	–	–	49%	–
CATCTAAGGAATGTGGT (sugars l4 d11 l2, PS)	63.7%	71.9%	–	–
TAATTACTTATGCAGA (sugars k3 d10 k3, PS)	–	–	17%	–

Sequence	target mRNA inhibition ([1]; 5 µM)	target mRNA inhibition ([1]; 25 µM)	target mRNA inhibition ([2]; A431, 2 µM)	other results
TTCTGATGTGACTCAG (sugars k3 d10 k3, PS)	–	–	26%	–
CCAGTTCCTGAAGAAGTTA (sugars l1 d15 l3, PS)	27.8%	30.1%	–	–
TATCTTGTTGAGCTAT (sugars k3 d10 k3, PS)	–	–	33%	–
GGCATTGCTAGTTCAA (sugars k3 d10 k3, PS)	–	–	43%	–
ATGATGCGGTTGTAGG (sugars l2 d11 l3, PS)	69.8%	81.1%	–	–
GGAGTCTTTATAGTAA (sugars kkkddddddddkekek, PS)	–	–	0%	–
GACTAATAGCAGTGGA (sugars k3 d10 k3, PS)	–	–	52% and 62%	–
TACTTATGCAGAGAAA (sugars k3 d10 k3, PS)	–	–	0%	–
AAGATGGTGTAACATA (sugars k3 d10 k3, PS)	–	–	30%	–
GTCTATTCATACCAGG (sugars k3 d10 k3, PS)	–	–	60%	–
TCCATTTATGTGACTA (sugars kkkdddddddddkeke, PS)	–	–	8%	–
TTAGTGATTAGGTCAA (sugars kdddddddddkekeke, PS)	–	–	0%	–
CCAGTGTTAAGAGAAC (sugars kkddddddddkekekk, PS)	–	–	53%	–
ATTTGTCAGCAGGACC (sugars k3 d10 k3, PS)	–	–	35%	–
GTGTAACATAGGTTAA (sugars k3 d10 k3, PS)	–	–	30%	–
GTCCAGTGATACTTTC (sugars kkkdddddddddkeke, PS)	–	–	33%	–
TTGTTGAGCTATCCAA (sugars k3 d10 k3, PS)	–	–	3%	–
ATGCAATGTTAATTTA (sugars k3 d10 k3, PS)	–	–	9%	–
GCTAATAATTTAGTGT (sugars k3 d10 k3, PS)	–	–	18%	–
TGCTAATAATTTAGTG (sugars k3 d10 k3, PS)	–	–	6%	–
ATTTCTGATGTGACTC (sugars k3 d10 k3, PS)	–	–	49%	–
CAGTATTAACACAGAA (sugars k3 d10 k3, PS)	–	–	7%	–
